{
  "source": "patent US20080293820A1",
  "about": "“METHODS FOR IMPROVING PHYSICAL FUNCTION IN FIBROMYALGIA” (Cypress Bioscience, Inc., priority 2007, published 2008)",
  "tested_on": "patients who meet the 1990 ACR criteria for fibromyalgia syndrome",
  "test": "Example 2: multicenter, double-blind, randomized, placebo-controlled monotherapy study of milnacipran for treatment of fibromyalgia (1196 patients)",
  "assay_type": "in vivo, human",
  "set-up": "Mean Change from Baseline in PFI SF-36 domain score / Mean Change from Baseline in ROLP SF-36 domain score / Mean Change from Baseline in PAIN SF-36 domain score / Mean Change from Baseline in GHP SF-36 domain score: scale not given here",
  "settings": "for time-weighted average (AUC) of SF-36 PCS Scores, Median / time-weighted average (AUC) of SF-36 PCS Scores, Mean: Visits Tx3-Tx15, intent to treat; for Composite Pain: number of responders / Composite Syndrome: number of responders / PGIC Component: number of responders / Pain Component: number of responders / SF36 PCS Component: number of responders: 200 mg (396); for time-weighted average (AUC) of SF-36 PCS Scores, Difference from Placebo / time-weighted average (AUC) of SF-36 PCS Scores, LS Mean: Tx3-Tx15, ANCOVA model",
  "method": "The primary outcome was a composite responder analysis assessing response rates of two doses (100 mg/day and 200 mg/day) of milnacipran as compared with placebo at Visit Tx15 (week 15).\nThis was a multicenter, randomized, double-blind, placebo-controlled three-arm study designed which enrolled 1196 patients who meet the 1990 ACR criteria for fibromyalgia syndrome (history of widespread pain and pain in 11 of 18 tender point sites on digital palpation), as well as the more detailed admission criteria outlined in the protocol.\nPatients were randomized to receive placebo, 100 mg/day milnacipran or 200 mg/day milnacipran in a ratio of 1:1:1 (placebo=401 patients, 100 mg/day=399 patients, 200 mg/day=396 patients). The patients assigned to the two active treatment arms received a total of 12 weeks of stable-dose milnacipran exposure after the 3 weeks of dosage escalation steps, for a total of 15 weeks of drug exposure. All randomized medications (placebo and milnacipran) were administered twice a day (BID).\nThe primary efficacy assessment of this study was a composite responder status defined by three domains of interest evaluated at visit Tx15. The domains measured were\n1) pain (measured by an electronic diary in the morning as a daily recall pain score); 2) patient global (measured by the PGIC, 1-7 scale); 3) physical function (measured by the SF-36 PCS).\nThe secondary efficacy parameters were time-weighted average (AUC) of the weekly average PED morning recall pain scores for Weeks 4 through 15, PGIC, and SF-36 PCS for Visit Tx3 to Visit Tx15.\nThe physical function domain for response analysis was measured by the Physical Component Summary of SF-36 (SF-36 PCS). The SF-36 is a brief, well-established, self-administered patient questionnaire for the assessment of health status, functional status, and quality of life. The SF-36 measures eight domains of health status: physical functioning, role limitations due to physical problems, bodily pain, general health perceptions, energy/vitality, social functioning, role limitations due to emotional problems, and mental health. An SF-36 PCS score and a mental component summary (MCS) score can be calculated by combining and weighting the various individual scales. The PCS and MCS scores have been standardized to have a mean=50, SD=10 in the general healthy US population (see, e.g., Ware, J., M. Kosinski, and J. Dewey, How to Score Version 2 of the SF-36 Health Survey (Standard & Acute Forms). 3rd ed. 2000, Lincoln, R.I.: QualityMetric).\nA patient was classified as a responder for the treatment of pain of fibromyalgia if he or she reached Visit Tx15 and satisfied the following criteria: • Greater than or equal to 30% in pain reduction from baseline; • PGIC rated as “much or very much improved,” (i.e., a score of 1 or 2 on the 1-7 scale at endpoint.)\nA patient was classified as a responder for the treatment of FMS if he or she satisfied the responder criteria for the treatment of pain of fibromyalgia and the following additional criterion (at visit Tx15): • Improvement on the SF-36 PCS score from baseline by an amount at least equivalent to the minimal clinically important difference, as defined in the Statistical Analysis Plan.\nTable 6 summarizes 3-month results for the Baseline Observation Carried Forward (BOCF), Last Observation Carried Forward (LOCF) and study completer (OC) populations. LOCF is an analysis in which observations are carried forward to the last time point for patients who dropped out. The LOCF analysis treats the carried-forward data as observed data at the last time point. BOCF is an analysis that requires that the patient remain active in the trial to be evaluated for response. If a patient withdrew from the trial for any reason, they were classified as a non-responder irregardless of their pain and global scores at the time of withdrawal. […]",
  "note": "Structures can show the parent of a compound that is named as a salt.",
  "data": [
    {"compound": "CCN(CC)C(=O)C1(c2ccccc2)CC1CN", "note": "(racemic) [milnacipran, Z-2-aminomethyl-1-phenyl-N,N-diethylcyclopropanecarboxamide hydrochloride]", "values": [
      {"measurement": "time-weighted average (AUC) of SF-36 PCS Scores, Median", "setting": "100 mg, OC", "result": 432.8},
      {"measurement": "Composite Pain: number of responders", "setting": "3-months, BOCF", "result": 98},
      {"measurement": "Composite Syndrome: number of responders", "setting": "3-months, BOCF", "result": 55},
      {"measurement": "PGIC Component: number of responders", "setting": "3-months, BOCF", "result": 129},
      {"measurement": "Pain Component: number of responders", "setting": "3-months, BOCF", "result": 119},
      {"measurement": "SF36 PCS Component: number of responders", "setting": "3-months, BOCF", "result": 89},
      {"measurement": "Composite Pain: number of responders", "setting": "3-months, LOCF", "result": 117},
      {"measurement": "Composite Syndrome: number of responders", "setting": "3-months, LOCF", "result": 65},
      {"measurement": "PGIC Component: number of responders", "setting": "3-months, LOCF", "result": 151},
      {"measurement": "Pain Component: number of responders", "setting": "3-months, LOCF", "result": 158},
      {"measurement": "SF36 PCS Component: number of responders", "setting": "3-months, LOCF", "result": 109},
      {"measurement": "Composite Pain: responder rate", "setting": "200 mg, 3-months, BOCF", "result": "(24.75%)"},
      {"measurement": "Composite Pain: responder rate difference from placebo (unlabelled line)", "setting": "200 mg, 3-months, BOCF", "result": 8.29, "unit": "%"},
      {"measurement": "Composite Syndrome: responder rate", "setting": "200 mg, 3-months, BOCF", "result": "(13.89%)"},
      {"measurement": "Composite Syndrome: responder rate difference from placebo (unlabelled line)", "setting": "200 mg, 3-months, BOCF", "result": 5.16, "unit": "%"},
      {"measurement": "PGIC Component: responder rate", "setting": "200 mg, 3-months, BOCF", "result": "(32.58%)"},
      {"measurement": "PGIC Component: responder rate difference from placebo (unlabelled line)", "setting": "200 mg, 3-months, BOCF", "result": 9.64, "unit": "%"},
      {"measurement": "Pain Component: responder rate", "setting": "200 mg, 3-months, BOCF", "result": "(30.05%)"},
      {"measurement": "Pain Component: responder rate difference from placebo (unlabelled line)", "setting": "200 mg, 3-months, BOCF", "result": 4.86, "unit": "%"},
      {"measurement": "SF36 PCS Component: responder rate", "setting": "200 mg, 3-months, BOCF", "result": "(22.47%)"},
      {"measurement": "SF36 PCS Component: responder rate difference from placebo (unlabelled line)", "setting": "200 mg, 3-months, BOCF", "result": 1.02, "unit": "%"},
      {"measurement": "Composite Pain: responder rate", "setting": "200 mg, 3-months, LOCF", "result": "(29.55%)"},
      {"measurement": "Composite Pain: responder rate difference from placebo (unlabelled line)", "setting": "200 mg, 3-months, LOCF", "result": 11.35, "unit": "%"},
      {"measurement": "Composite Syndrome: responder rate", "setting": "200 mg, 3-months, LOCF", "result": "(16.41%)"},
      {"measurement": "Composite Syndrome: responder rate difference from placebo (unlabelled line)", "setting": "200 mg, 3-months, LOCF", "result": 6.68, "unit": "%"},
      {"measurement": "PGIC Component: responder rate", "setting": "200 mg, 3-months, LOCF", "result": "(38.13%)"},
      {"measurement": "PGIC Component: responder rate difference from placebo (unlabelled line)", "setting": "200 mg, 3-months, LOCF", "result": 13.19, "unit": "%"},
      {"measurement": "Pain Component: responder rate", "setting": "200 mg, 3-months, LOCF", "result": "(39.90%)"},
      {"measurement": "Pain Component: responder rate difference from placebo (unlabelled line)", "setting": "200 mg, 3-months, LOCF", "result": 11.22, "unit": "%"},
      {"measurement": "SF36 PCS Component: responder rate", "setting": "200 mg, 3-months, LOCF", "result": "(27.53%)"},
      {"measurement": "SF36 PCS Component: responder rate difference from placebo (unlabelled line)", "setting": "200 mg, 3-months, LOCF", "result": 2.09, "unit": "%"},
      {"measurement": "Composite Pain: m/n = # of responders/# of patients included", "setting": "200 mg, 3-months, OC", "result": "98/215"},
      {"measurement": "Composite Pain: responder rate", "setting": "200 mg, 3-months, OC", "result": "(45.58%)"},
      {"measurement": "Composite Pain: responder rate difference from placebo (unlabelled line)", "setting": "200 mg, 3-months, OC", "result": 20.39, "unit": "%"},
      {"measurement": "Composite Syndrome: m/n = # of responders/# of patients included", "setting": "200 mg, 3-months, OC", "result": "55/215"},
      {"measurement": "Composite Syndrome: responder rate", "setting": "200 mg, 3-months, OC", "result": "(25.58%)"},
      {"measurement": "Composite Syndrome: responder rate difference from placebo (unlabelled line)", "setting": "200 mg, 3-months, OC", "result": 12.22, "unit": "%"},
      {"measurement": "PGIC Component: m/n = # of responders/# of patients included", "setting": "200 mg, 3-months, OC", "result": "129/255"},
      {"measurement": "PGIC Component: responder rate", "setting": "200 mg, 3-months, OC", "result": "(50.59%)"},
      {"measurement": "PGIC Component: responder rate difference from placebo (unlabelled line)", "setting": "200 mg, 3-months, OC", "result": 18.76, "unit": "%"},
      {"measurement": "Pain Component: m/n = # of responders/# of patients included", "setting": "200 mg, 3-months, OC", "result": "119/217"},
      {"measurement": "Pain Component: responder rate", "setting": "200 mg, 3-months, OC", "result": "(54.84%)"},
      {"measurement": "Pain Component: responder rate difference from placebo (unlabelled line)", "setting": "200 mg, 3-months, OC", "result": 16.44, "unit": "%"},
      {"measurement": "SF36 PCS Component: m/n = # of responders/# of patients included", "setting": "200 mg, 3-months, OC", "result": "89/255"},
      {"measurement": "SF36 PCS Component: responder rate", "setting": "200 mg, 3-months, OC", "result": "(34.90%)"},
      {"measurement": "SF36 PCS Component: responder rate difference from placebo (unlabelled line)", "setting": "200 mg, 3-months, OC", "result": 5.24, "unit": "%"},
      {"measurement": "time-weighted average (AUC) of SF-36 PCS Scores, Difference from Placebo", "setting": "200 mg, LOCF", "result": 8.36},
      {"measurement": "time-weighted average (AUC) of SF-36 PCS Scores, LS Mean", "setting": "200 mg, LOCF", "result": 420.38},
      {"measurement": "time-weighted average (AUC) of SF-36 PCS Scores, Difference from Placebo", "setting": "200 mg, OC", "result": 11.17},
      {"measurement": "time-weighted average (AUC) of SF-36 PCS Scores, LS Mean", "setting": "200 mg, OC", "result": 429.46},
      {"measurement": "Mean Change from Baseline in GHP SF-36 domain score", "setting": "200 mg, Tx 15, Observed Cohort", "result": 6.6},
      {"measurement": "Mean Change from Baseline in PAIN SF-36 domain score", "setting": "200 mg, Tx 15, Observed Cohort", "result": 18.2},
      {"measurement": "Mean Change from Baseline in PCS Score at Tx 15", "setting": "200 mg, Tx 15, Observed Cohort", "result": 3.9},
      {"measurement": "Mean Change from Baseline in PFI SF-36 domain score", "setting": "200 mg, Tx 15, Observed Cohort", "result": 6.9},
      {"measurement": "Mean Change from Baseline in ROLP SF-36 domain score", "setting": "200 mg, Tx 15, Observed Cohort", "result": 14.9},
      {"measurement": "time-weighted average (AUC) of SF-36 PCS Scores, Mean", "setting": "200 mg, LOCF", "result": 418.97},
      {"measurement": "time-weighted average (AUC) of SF-36 PCS Scores, Median", "setting": "200 mg, LOCF", "result": 419.2},
      {"measurement": "time-weighted average (AUC) of SF-36 PCS Scores, Mean", "setting": "200 mg, OC", "result": 428.24},
      {"measurement": "time-weighted average (AUC) of SF-36 PCS Scores, Median", "setting": "200 mg, OC", "result": 428.4}
    ]}
  ]
}
